Test results as given in ChEMBL document CHEMBL2028040, “Malaria Box”.

How the values were obtained:
Plasmodium falciparum [1] = experiment: MMV: Inhibition of Plasmodium falciparum 3D7 at 5uM compound concentration.; assay type: functional
Leishmania infantum = experiment: MMV: Inhibition of Leishmania infantum (MHOM/MA/BE/67) in vitro.; assay type: functional, organism-based
Trypanosoma cruzi = experiment: MMV: Inhibition of Trypanosoma cruzi (Tulahuen C4 LacZ) (Chagas in vitro).; assay type: functional, organism-based
[2] = tested on: Trypanosoma brucei brucei; experiment: MMV: Inhibition of Trypanosoma brucei brucei (Squib 427) (HAT in vitro).; assay type: functional, organism-based
[3] = tested on: Trypanosoma brucei rhodesiense; experiment: MMV: Inhibition of Trypanosoma brucei rhodesiense (STIB 900) (HAT in vitro).; assay type: functional, organism-based
[4] = MMV: Cytotoxicity against human fibroblasts (MRC-5) cells.; conditions: MRC-5 cells (human fibroblasts)
Plasmodium falciparum [5] = experiment: MMV: Inhibition of Plasmodium falciparum 3D7 (EC50).; assay type: functional, organism-based

Row | Structure (SMILES) | inhibition at 5 µM (Plasmodium falciparum [1]) [%] | IC50 (Leishmania infantum) [µM] | IC50 (Trypanosoma cruzi) [µM] | IC50 [2] [µM] | IC50 [3] [µM] | IC50 [4] [µM] | EC50 (Plasmodium falciparum [5]) [µM]
1 | O=C(NCCCN1CCC(N2CCCCC2)CC1)C1=Cc2cc(Br)ccc2OC1 | 99 | 4.03 | 4.22 | 0.805 | 0.859 | 12 | 0.563
2 | COc1cc(OC)cc(N2C(=O)N(Cc3ccc(C(C)(C)C)cc3)c3ccccc3S2(=O)=O)c1 | 97 | 16.2 | 8.64 | 18.4 | 4.06 | > 32 | 1.43
3 | COc1cc(-c2nc(-c3ccccc3)c(-c3ccccc3)[nH]2)cc(OC)c1O | 97 | 25.4 | 28.3 | 11.9 | 9.75 | > 32 | 1.18
4 | CN1c2ccccc2N(C)C1c1ccc2c(c1)OCO2 | 60 | > 32 | > 32 | > 32 | > 32 | > 32 | 0.994
5 | Cc1sc(NC(=O)c2ccccc2)c(C(c2cccs2)N2CCN(c3ccccc3)CC2)c1C (centres undefined) | – | 12.7 | > 32 | 6.32 | 4 | > 32 | 1.18
6 | CC(C)(C)CC(C)(C)NCC(O)COc1ccc(Cl)cc1Cl (centres undefined) | – | 6.35 | 12.2 | 4 | 4.06 | 16.1 | 1.16
7 | Cc1ccc(-c2cc3c(SCC(=O)Nc4cc(C(F)(F)F)ccc4Cl)nccn3n2)cc1 | – | > 32 | > 32 | > 32 | > 32 | > 32 | 0.0928
8 | CC1(c2ccccc2)Nc2ccccc2-c2nc3ccccc3n21 (centres undefined) | – | > 32 | 19.1 | 17.1 | 10.3 | > 32 | 1.73
9 | CCN(CC)CCNc1ncnc2c1[nH]c1ccc(Cl)cc12 | – | 16.2 | 10.7 | 4.09 | 3.73 | > 32 | 0.406
10 | CCOc1c(Cl)cc(CNCC(O)c2ccccc2)cc1OC (centres undefined) | – | > 32 | > 32 | 11.9 | 16.1 | > 32 | 1.05
11 | Cc1sc(NC(=O)c2ccco2)c(C(c2cccnc2)N2CCC(Cc3ccccc3)CC2)c1C (centres undefined) | – | 16.2 | 1.36 | 3.94 | 3.97 | > 32 | 1.02
12 | Clc1ccc2[nH]c3c(NCCCN4CCOCC4)ncnc3c2c1 | – | > 32 | 21.3 | > 32 | 3.94 | > 32 | 0.7
13 | COc1ccc(-c2nc(N3CCN(C(=O)C4CCCCC4)CC3)c3c4c(sc3n2)CCCC4)cc1 | – | 4.32 | 7.45 | 4.09 | 4.07 | > 32 | 1.06
14 | CC(C)CNC(=O)c1c(N)n(CCc2ccccc2F)c2nc3ccccc3nc12 | – | > 32 | > 32 | > 32 | > 32 | > 32 | 0.832
15 | Cc1cc(N2CCCC2)nc(Nc2ccc(NC(=O)CCc3ccccc3)cc2)n1 | – | 1.19 | 1.01 | 4.3 | 0.871 | 5.38 | 1.07
16 | COc1ccc2c(c1)C1(Nc3ccccc3-c3nc4ccccc4n31)C(=O)N2 (centres undefined) | – | > 32 | > 32 | > 32 | > 32 | > 32 | 0.928
17 | O=C(NNc1cc(N2CCCC2)nc(N2CCCC2)n1)c1ccccc1 | – | 25.4 | 13.7 | > 32 | 16.5 | > 32 | 1.33
18 | COc1ccc(Nc2cc(C)nc(NCc3ccccc3)n2)cc1 | – | 4.32 | 1.04 | 2.95 | 3.86 | 13.5 | 0.467
19 | COc1cccc(Nc2nc(NCCO)c3ccccc3n2)c1 | – | 4.32 | 13.3 | 14.3 | 6.75 | 26.3 | 0.854
20 | CCn1nc(-c2ccc(C(=O)OC)cc2)nc2c(=O)n(C)c(=O)nc1-2 | – | 4.06 | 0.81 | 0.28 | 0.803 | 3.53 | 0.693
21 | COCCNCC(O)Cn1c2ccc(Cl)cc2c2cc(Cl)ccc21 (centres undefined) | – | 2.97 | 3.89 | 0.711 | 0.357 | 4.81 | 1.01
22 | Cc1cc(Nc2ccc3ccccc3c2)n2ncnc2n1 | – | > 32 | > 32 | > 32 | > 32 | > 32 | 0.242
23 | CN1CCN(c2nc(Nc3ccc(O)cc3)nc3ccccc23)CC1 | – | 13.6 | 11.1 | 4.69 | 3.28 | > 32 | 1.43

Row | Structure (SMILES) | inhibition at 5 µM (Plasmodium falciparum [1]) [%] | IC50 (Leishmania infantum) [µM] | IC50 (Trypanosoma cruzi) [µM] | IC50 [2] [µM] | IC50 [3] [µM] | IC50 [4] [µM] | EC50 (Plasmodium falciparum [5]) [µM]
24 | COc1cccc(Cn2c(Oc3ccccc3)nc3c2c(=O)n(C)c(=O)n3C)c1 | – | > 32 | > 32 | > 32 | > 32 | > 32 | 1.39
25 | Cc1cc(NC(=O)c2cccc(C(F)(F)F)c2)n(-c2nc(-c3ccc4c(c3)OCO4)cs2)n1 | – | 16.2 | > 32 | > 32 | > 32 | > 32 | 0.959
26 | Oc1ccc(Br)cc1CN1CCN(Cc2cccc(F)c2)CC1 | – | 25.4 | 12.6 | > 32 | 16.7 | > 32 | 1.03
27 | Nc1ccn([C@@H]2O[C@H](CO)[C@@H](O)[C@H]2O)c(=O)n1 [CYTIDINE] | – | > 32 | > 32 | > 32 | > 32 | > 32 | 0.385
28 | CCOC(=O)c1c(C)n(-c2ccccc2)c2ccc(OC(=O)c3cc(OC)c(OC)c(OC)c3)cc12 | – | > 32 | 13.3 | 16.2 | 10.8 | 26.4 | 0.615
29 | COc1ccc(-c2cc3c(SCC(=O)Nc4cc(C(F)(F)F)ccc4Cl)nccn3n2)cc1 | – | 16.2 | > 32 | > 32 | > 32 | > 32 | 0.0899
30 | CCOc1ccccc1CN1CCc2nc3cc(C(C)(C)C)nn3c(O)c2C1 | – | > 32 | > 32 | 28.9 | > 32 | > 32 | 1.01
31 | Cc1cc(C)cc(Nc2cc(C)nc3nc(C(F)(F)F)nn23)c1 | – | > 32 | > 32 | > 32 | > 32 | > 32 | 0.0857
32 | Cc1cc(N2CCN(C3CCCC3)CC2)n2c(nc3ccccc32)c1C#N | – | > 32 | > 32 | > 32 | > 32 | > 32 | 0.683
33 | Cc1cc(N(C)C)nc(Nc2ccc(NC(=O)Nc3ccccc3)cc2)n1 | – | 4.32 | 1.03 | 5.54 | 1.25 | 23.8 | 1.15
34 | O=C(NC1CCN(Cc2ccccc2)CC1)c1cc2nc(-c3ccc(Cl)s3)cc(C(F)(F)F)n2n1 | – | 16 | > 32 | > 32 | > 32 | > 32 | 0.959
35 | COc1ccc2c(c1)OC(O)(C(F)(F)C(F)(F)F)CC2=O (centres undefined) | – | 25.4 | 16.1 | > 32 | 17.1 | 25.6 | 0.283
36 | COc1cc(C(=O)Nc2nc3c(cc4c5c(cccc53)CC4)s2)cc(OC)c1OC | – | 16.2 | > 32 | > 32 | > 32 | > 32 | 0.898
37 | Cc1cc(Nc2ccc(Cl)cc2)n2nc(C(F)(F)F)nc2n1 | – | > 32 | > 32 | > 32 | > 32 | > 32 | 0.212
38 | CN(N=O)C1=C(NC2CCCCC2)C(=O)c2ccccc2C1=O | – | > 32 | 12.8 | 16.5 | 4.61 | > 32 | 1.19
39 | COc1ccc(Nc2nc(NCc3ccccc3)c3ccccc3n2)cc1 | – | 1.01 | 3.55 | 3.84 | 4.03 | 12.4 | 0.589
40 | COc1cc2c(cc1OC)C1=NNC(=O)C1=NC(C)(C)C2 | – | 4.03 | 3.59 | 12.9 | 6.64 | > 32 | 1.04
41 | CCN(CC)CCNc1ccnc2cc3ccccc3cc12 | – | 4.32 | 14.8 | 4.06 | 3.94 | 12.2 | 0.391
42 | Cc1ccc(Nc2nc(NCCO)c3ccccc3n2)cc1C | – | 2.52 | 2.99 | 8.22 | 3.83 | 11.4 | 0.428
43 | Nc1nc(Nc2cccc(F)c2)nc2ccccc12 | – | 16 | 20.2 | 27.3 | 16.8 | > 32 | 1
44 | COc1ccc(CCn2c(=N)c(C(=O)NCc3cccnc3)cc3c(=O)n4cccc(C)c4nc32)cc1 | – | 12.7 | 13.2 | 4 | 3.6 | > 32 | 0.373
45 | N=c1n(CCN2CCCCC2)c2ccccc2n1CC(=O)c1ccc(Cl)c(Cl)c1 | – | 4.06 | 4.48 | 4 | 1.1 | 10.6 | 1.24
